Experiments:
Format in all cases: in vivo
[1] = tested on: Amblyomma hebraeum; assay: Amblyomma hebraeum test (AMBYHE), nymph immersion; conditions: comparison with WO2008/128711
Description: (§1) Solvent: dimethyl sulfoxide
To produce a suitable preparation of active compound, 10 mg of active compound are dissolved in 0.5 ml solvent, and the concentrate is diluted with water to the desired concentration. Nymphs of the tick Amblyomma hebraeum are placed in perforated plastic beakers and immersed in aqueous compound solution for one minute. Ticks are transferred to a filter paper in a Petri dish and incubated in a climate chamber for 42 days.
After 42 days mortality in % is determined 100% means that all the ticks have been killed; 0% means that none of the ticks have been killed.

[2] = tested on: organic phosphorus agent- and carbamate agent-resistant Myzus persicae; assay: Test for organic phosphorus agent- and carbamate agent-resistant Myzus persicae (spray, eggplant); conditions: 100 ppm active ingredient, 7 days
Description: If not mentioned otherwise, all sample solutions were prepared as described in Biological Test Example 1 and diluted to the appropriate (predetermined) concentrations.
About 30 to 50 of grown organic phosphorus agent- and carbamate agent-resistant Myzus persicae per seedling were inoculated to leaves at 2-leaf stage of eggplants grown in a pot of 6 cm in diameter, to which, after 1 day from the inoculation, the above prepared water-diluted solution of above active compound of the predetermined concentration was sufficiently sprayed with a spray gun. After the spraying, the pot was left in a greenhouse at room temperature for 7 days, followed by the pest-controlling rate calculated. The test was repeated twice.

[3] = tested on: Boophilus microplus; assay: Boophilus microplus test (injection); conditions: application rate 20 μg/animal, adult engorged females, after 7 days
How it was run: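 Compound dissolved and diluted in DMSO, then injected into the abdomen of adult engorged female ticks, five per dose. Ticks held in a climate chamber and fertile egg deposition monitored. Read at 7 days as %, 100% = all eggs infertile, 0% = all fertile.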

[4] = tested on: Lucilia cuprina larvae; assay: Lucilia cuprina test (larvae in minced horse meat); conditions: Lucilia cuprina, 48 h, read-out: activity (mortality in %)
Description: as §1
To produce a suitable preparation of active compound, 10 mg of active compound are dissolved in 0.5 ml solvent, and the concentrate is diluted with water to the desired concentration. Approximately 20-30 (Lucilia cuprina larvae) are transferred into a test tube containing 1 cm^3 of minced horse meat and 0.5 ml aqueous dilution of test compound. After 2 days mortality in % is determined 100% means that all the larvae have been killed; 0% means that none of the larvae have been killed.

[5] = tested on: Musca domestica; assay: Musca domestica test (sugar sponge); conditions: Musca domestica, 48 h, read-out: activity (mortality in %)
Description: as §1
To produce a suitable preparation of active compound, 10 mg of active compound are dissolved in 0.5 ml solvent, and the concentrate is diluted with water to the desired concentration. Prior to the assay, a piece or kitchen sponge is soaked with a mixture of sugar and compound solution and placed into a container. 10 adults (Musca domestica) are placed into the container and closed with a perforated lid. After 2 days mortality in % is determined. 100% means that all the flies have been killed; 0% means that none of the flies have been killed.

[6] = tested on: Ctenocephalides felis; assay: Ctenocephalides felis test (CTECFE), blood feeding; conditions: 48 h, read-out: activity (mortality in %)
Description: as §1
To produce a suitable preparation of active compound, 10 mg of active compound are dissolved in 0.5 ml solvent, and the concentrate is diluted with cattle blood to the desired concentration. Approximately 10 to 15 adult unfed (Ctenocepahlides felis) are placed in flea chambers. The blood chamber, are sealed with parafilm on the bottom are filled with cattle blood supplied with compound solution and placed on top of the flea chamber, so that the fleas are able to suck the blood. The blood chamber is heated to 37° C. whereas the flea chamber is kept at room temperature. After 2 days mortality in % is determined 100% means that all the fleas have been killed; 0% means that none of the fleas have been killed.

Compound | Activity at 0.8 ppm ([1]; 0.8 ppm) | Activity at 4 ppm ([1]; 4 ppm) | insecticidal rate (pest-controlling rate) [2] | activity (100% means that all eggs are infertile) [3] | mortality at 100 ppm [4] | mortality at 100 ppm [5] | mortality at 100 ppm [6]
CCC(=O)NCc1ccc(N2CCC(c3cc(Cl)cc(Cl)c3)(C(F)(F)F)C2)cc1C(F)(F)F (centres unmarked) [1-143] | 100% | 100% | 100% | 100% | – | – | –
CCC(=O)NCc1sc(N2CCC(c3cc(Cl)c(Cl)c(Cl)c3)(C(F)(F)F)C2)nc1C(F)(F)F (centres unmarked) [5-142, N-({2-[3-(3,4,5-trichlorophenyl)-3-(trifluoromethyl)pyrrolidin-1-yl]-4-(trifluoromethyl)-1,3-thiazol-5-yl}methyl)propanamide] | – | – | – | 100% | 100% | 100% | 100%
O=C(NCc1ccc(N2CCC(c3cc(Cl)cc(Cl)c3)(C(F)(F)F)C2)cc1C(F)(F)F)c1ccc(Cl)nc1 (centres unmarked) [1-198, 6-chloro-N-{4-[3-(3,5-dichlorophenyl)-3-(trifluoromethyl)-pyrrolidin-1-yl]-2-(trifluoromethyl)benzyl}pyridine-3-carboxyamide] | – | – | – | 100% | 100% | – | 90%

— US9266830B2, “Pesticidal arylpyrrolidines” (Bayer Intellectual Property GmbH, priority 2007, dated 2016)
